Consider 1 substance from patent US20030195168A1, “Therapeutic agents - III” (priority 2000, published 2003).

The test system of assay [1] is Peripheral blood mononuclear cells (PBMC). Description: Respiratory burst (H2O2) in PBMC, DCFH-DA flow cytometry. The assay is classed as cell-based. As to conditions: 10 μg/mL or 1 μg/mL, added at the same time as test compounds. How it is done: Experiments were also carried out using 2′,7′-dichlorofluorescein diacetate (DCFH-DA) to measure the production of H2O2.(J P Robinson, Oxidative burst methods, in Handbook of Flow Cytometry Methods, Wiley-Liss Inc, pp147-149, 1993). H2O2 oxidizes the non-fluorescent probe (DCFH-DA) to a fluorescent probe that can then be detected by a flow cytometer. Peripheral blood mononuclear cells (PBMC) were extracted from a donor blood sample by lysis of heparinized blood and used in a suspension of 1×10^6/mL of phosphate buffer, pH 7.3. The cells were then incubated with DCFH-DA (1 μL/mL of 20 mM stock) for 15 minutes to allow it to be taken up and trapped by hydrolysis with cellular esterases. The cells were then stimulated by test compounds for 15 min at 37° C. Controls included in the experiment were unloaded control (cells with no DCFH-DA) and loaded control (cells with DCFH-DA, but no stimulation). These were used to monitor the non-specific oxidation of unstimulated cells. The cells were then analyzed on the flow cytometer (excitation at 488 nm, emission at 525±20 nm), gating each sample for individual cell populations-granulocytes, monocytes and lymphocytes (Table 3).

The test system of assay [2] is MM96L cells. Description: Effect of Euphorbiaceae saps on MM96L cells (cytotoxicity, bipolar dendritic phenotype). The assay is classed as cell-based. As to conditions: 1 μg/mL or 10 μg/mL. Here is the method:
Sap was collected from Synadenium grantii, Synadenium compactum, Mondenium lugardae, Mondenium guentheri, Endadenium gossweileni, and E. peplus and serially diluted ten-fold up to 10^−7into sterile 1.5 mL Eppendorf™ tubes using growth medium. […] After 3 days, cells were examined for cytotoxicity or differentiation to a bipolar dendritic phenotype.

The subject of assay [3] is phorbol ester binding site of PKC. Description: [3H]-phorbol dibutyrate competition assay on rat brain homogenate. Here is the method:
A competition assay was performed to determine whether the diterpene esters of the instant invention bind to the phorbol ester binding site of PKC. […] This binding was not blocked by co-incubation with bisindolylmaleimide.

As to bisindolylmaleimide, the “block of the respiratory burst by PKC inhibitor” value in assay [1] is given as “blocked the respiratory burst”. In addition, the “effect of PKC inhibitor on sap-induced differentiation of MM96L cells” value in assay [2] is “this differentiation is inhibited”. For the same substance, the “binding to the phorbol ester binding site of PKC” value in assay [3] is on record as “does not”.
